# Reference: ChEMBL document CHEMBL1201862, “PubChem BioAssay data set” (2004)
# Active and inactive are the calls of the source.
# How the values were obtained:
# [1] = Trypanosoma cruzi growth suppression in host cells – NIH3T3 host cells, beta-gal luminescence, confirmation (AID 2044); type: functional, cell-based;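 further: intracellular parasites grown in NIH/3T3 mouse fibroblasts as host cells; luminescent beta-galactosidase reporter signal from transgenic T. cruzi replicating inside host cells; inhibitors lower the luminescence signal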
# [2] = target: T1, Neuropeptides B/W receptor type 1 (Homo sapiens, UniProt P48145); experiment: Fluorescence-based dose response cell-based high throughput screening assay to identify antagonists of the G-protein coupled receptor 7 (GPR7). [Related pubchem assays: 1952 (Screening assay (GPR7 antagonists).), 1880 (Summary AID.)]; type: functional
# T1 sequence (P48145 whole entry): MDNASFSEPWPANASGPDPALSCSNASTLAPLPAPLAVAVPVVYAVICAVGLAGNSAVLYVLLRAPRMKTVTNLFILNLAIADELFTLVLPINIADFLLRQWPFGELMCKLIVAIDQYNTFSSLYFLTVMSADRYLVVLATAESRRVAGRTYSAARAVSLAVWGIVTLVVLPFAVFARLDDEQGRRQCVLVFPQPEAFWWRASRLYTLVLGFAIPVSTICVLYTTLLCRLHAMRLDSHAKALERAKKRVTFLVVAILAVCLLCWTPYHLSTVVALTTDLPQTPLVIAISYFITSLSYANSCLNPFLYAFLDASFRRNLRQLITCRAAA
# [3] = NIH3T3 cell viability loss – ATP luminescence, mouse fibroblasts, counter-screen, dose response (AID 2010); type: functional, cell-based;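 further: cells exposed to compound for about 90 hours before reading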
# [4] = target: Melanin-concentrating hormone receptor 1 (Homo sapiens, UniProt Q99705); experiment: Fluorescence-based counterscreen for antagonists of the G-protein coupled receptor 7 (GPR7): cell-based high throughput dose response assay to identify antagonists of the melanin-concentrating hormone receptor 1 (MCHR1).; type: functional
# [5] = target: Peroxisome proliferator-activated receptor gamma/Nuclear receptor coactivator 2 (Homo sapiens, UniProt P37231); experiment: (§1) TR-FRET dose response biochemical High Throughput Screening assay for agonists of the steroid receptor coactivator 2 (SRC-2) recruitment by the peroxisome proliferator-activated receptor gamma (PPAR gamma): non-selective agonists. [Related pubchem assays: 1297, 1032 ]; type: functional
# [6] = target: Peroxisome proliferator-activated receptor gamma/Nuclear receptor coactivator 1 (Homo sapiens, UniProt P37231); experiment: as §1, with “1 (SRC-1)” for “2 (SRC-2)”, “assays (depositor defined):AID1300, AID1808, AID504735, AID631]” for “assays: 1297, 1032 ]”; type: protein assay
# [7] = target: Peroxisome proliferator-activated receptor gamma/Nuclear receptor coactivator 3 (Homo sapiens, UniProt P37231); experiment: as §1, with “3 (SRC-3)” for “2 (SRC-2)”, “1301 (Confirmation screen.), 1048 (Primary screen.)]” for “1297, 1032 ]”; type: functional
# [8] = HEK-293T cell viability reduction – luminescence, B-cell screen hits, cytotoxicity control for BCR NF-kB inhibitor project, dose response (AID 489021); type: functional, cell-based;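 further: HEK-293T cells carrying an NF-kB luciferase reporter; cells exposed to compound for about 14 hours before viability readout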
# [9] = target: Glyceraldehyde-3-phosphate dehydrogenase (Homo sapiens, UniProt P04406)
# [10] = target: T2, Alkaline phosphatase, tissue-nonspecific isozyme (Homo sapiens, UniProt P05186); experiment: potency against alkaline phosphatase TNAP – biochemical, luminescent, dose response, SAR follow-up (AID 1056)
# T2 sequence (P05186 whole entry): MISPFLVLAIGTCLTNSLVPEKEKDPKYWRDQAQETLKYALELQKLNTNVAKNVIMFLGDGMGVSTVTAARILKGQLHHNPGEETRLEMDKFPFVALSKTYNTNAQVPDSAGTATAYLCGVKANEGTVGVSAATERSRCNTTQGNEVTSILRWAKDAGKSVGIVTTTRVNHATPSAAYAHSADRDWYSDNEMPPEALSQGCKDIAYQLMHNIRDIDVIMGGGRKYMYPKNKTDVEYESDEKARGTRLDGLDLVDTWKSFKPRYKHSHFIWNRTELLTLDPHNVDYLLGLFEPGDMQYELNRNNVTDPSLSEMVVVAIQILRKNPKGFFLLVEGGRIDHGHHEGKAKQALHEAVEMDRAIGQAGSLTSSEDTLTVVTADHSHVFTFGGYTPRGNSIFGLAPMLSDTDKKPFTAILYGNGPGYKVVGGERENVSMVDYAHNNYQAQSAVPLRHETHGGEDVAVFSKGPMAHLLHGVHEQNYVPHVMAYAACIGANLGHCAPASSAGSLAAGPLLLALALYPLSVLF
# Aminopeptidase N = target: T3, Aminopeptidase N (Plasmodium falciparum FcB1/Columbia, UniProt O96935); experiment: malaria alanyl aminopeptidase activity blockers – biochemical, fluorogenic H-Leu-NHMec substrate, 1536-well (AID 1445); parameters: species or system Plasmodium falciparum 3D7, 3D7
# T3 sequence (O96935 whole entry): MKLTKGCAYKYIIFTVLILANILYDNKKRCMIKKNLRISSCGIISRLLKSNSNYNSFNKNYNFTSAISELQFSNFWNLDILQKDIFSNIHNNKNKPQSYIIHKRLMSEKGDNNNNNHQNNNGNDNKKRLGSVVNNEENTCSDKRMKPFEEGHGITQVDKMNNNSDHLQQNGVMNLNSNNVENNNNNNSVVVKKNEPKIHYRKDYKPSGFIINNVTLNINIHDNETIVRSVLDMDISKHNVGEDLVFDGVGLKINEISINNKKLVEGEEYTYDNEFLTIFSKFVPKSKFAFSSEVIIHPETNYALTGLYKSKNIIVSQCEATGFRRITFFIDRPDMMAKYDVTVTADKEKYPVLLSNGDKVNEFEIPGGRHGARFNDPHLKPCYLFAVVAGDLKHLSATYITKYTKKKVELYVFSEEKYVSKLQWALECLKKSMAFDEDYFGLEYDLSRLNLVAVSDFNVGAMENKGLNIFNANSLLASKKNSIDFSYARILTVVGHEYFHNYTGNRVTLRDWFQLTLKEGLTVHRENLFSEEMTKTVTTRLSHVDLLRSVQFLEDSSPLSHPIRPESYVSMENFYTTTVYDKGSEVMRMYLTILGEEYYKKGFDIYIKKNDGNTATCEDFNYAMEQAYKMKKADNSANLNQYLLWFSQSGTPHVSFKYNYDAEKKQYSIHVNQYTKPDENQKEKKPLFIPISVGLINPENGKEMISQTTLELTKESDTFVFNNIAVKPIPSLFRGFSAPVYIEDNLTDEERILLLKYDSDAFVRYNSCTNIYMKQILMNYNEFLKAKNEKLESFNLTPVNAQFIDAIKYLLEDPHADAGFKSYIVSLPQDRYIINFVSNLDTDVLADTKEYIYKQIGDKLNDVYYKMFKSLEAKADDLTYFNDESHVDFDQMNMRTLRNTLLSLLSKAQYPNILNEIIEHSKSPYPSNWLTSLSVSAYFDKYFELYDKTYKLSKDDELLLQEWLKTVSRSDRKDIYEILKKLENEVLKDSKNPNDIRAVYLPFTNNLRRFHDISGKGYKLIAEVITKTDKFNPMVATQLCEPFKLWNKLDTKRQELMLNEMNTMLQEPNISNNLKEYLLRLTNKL
# [11] = target: DNA dC->dU-editing enzyme APOBEC-3A (Homo sapiens, UniProt P31941); experiment: Dose Response confirmation of small molecule APOBEC3A DNA Deaminase Inhibitors via a fluorescence-based single-stranded DNA deaminase assay. [Related pubchem assays (depositor defined):AID493011, AID493024]; type: functional
# [12] = target: DNA dC->dU-editing enzyme APOBEC-3G (Homo sapiens, UniProt Q9HC16); type: functional;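 further: Dose-response counterscreen measuring inhibition of APOBEC3G DNA deaminase activity, run while confirming APOBEC3A inhibitors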
# [13] = target: T4, Heat shock factor protein 1 (Mus musculus, UniProt P38532); experiment: enhancement of HSF1-driven luciferase signal – cell-based, NIH3T3, luminescence, dose retest, confirmation (AID 435004); type: functional;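 further: stress induced by proteasome inhibitor MG132 added 30 min after compound; luciferase reporter driven by HSF1 response element in NIH3T3 cells; actives raise luminescence as potentiators of the MG132 stress response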
# T4 sequence (P38532 whole entry): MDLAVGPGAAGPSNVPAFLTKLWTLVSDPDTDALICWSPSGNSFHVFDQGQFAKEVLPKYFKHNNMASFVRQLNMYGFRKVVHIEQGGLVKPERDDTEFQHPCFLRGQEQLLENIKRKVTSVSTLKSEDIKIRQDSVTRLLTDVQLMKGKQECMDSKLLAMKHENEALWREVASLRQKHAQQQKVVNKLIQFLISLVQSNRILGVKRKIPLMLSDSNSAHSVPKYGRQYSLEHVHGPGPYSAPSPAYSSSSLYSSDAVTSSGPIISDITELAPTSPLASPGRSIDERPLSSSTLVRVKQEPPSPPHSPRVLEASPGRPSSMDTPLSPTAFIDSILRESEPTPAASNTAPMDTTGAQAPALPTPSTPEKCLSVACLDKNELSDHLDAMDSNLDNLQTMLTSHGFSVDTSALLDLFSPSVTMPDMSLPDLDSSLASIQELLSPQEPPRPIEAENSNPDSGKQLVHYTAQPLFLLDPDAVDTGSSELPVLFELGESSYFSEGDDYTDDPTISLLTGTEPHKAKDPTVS
# [14] = viability of uninfected HEp-2 cells – cell-based, HTS, cytotoxicity control for RSV inhibitor project, dose response (AID 2410); type: functional; conditions: human respiratory syncytial virus
# [15] = target: T5, Microphthalmia-associated transcription factor (Homo sapiens, UniProt O75030); experiment: reducers of TRPM1 reporter luminescence, concentration series – cell-based, SK-MEL-5, cherry-picked, set 3, MITF inhibitor project, dose response (AID 493073); type: functional;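 further: SK-MEL-5 melanoma cells with luciferase driven by the MITF target TRPM1 promoter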
# T5 sequence (O75030 whole entry): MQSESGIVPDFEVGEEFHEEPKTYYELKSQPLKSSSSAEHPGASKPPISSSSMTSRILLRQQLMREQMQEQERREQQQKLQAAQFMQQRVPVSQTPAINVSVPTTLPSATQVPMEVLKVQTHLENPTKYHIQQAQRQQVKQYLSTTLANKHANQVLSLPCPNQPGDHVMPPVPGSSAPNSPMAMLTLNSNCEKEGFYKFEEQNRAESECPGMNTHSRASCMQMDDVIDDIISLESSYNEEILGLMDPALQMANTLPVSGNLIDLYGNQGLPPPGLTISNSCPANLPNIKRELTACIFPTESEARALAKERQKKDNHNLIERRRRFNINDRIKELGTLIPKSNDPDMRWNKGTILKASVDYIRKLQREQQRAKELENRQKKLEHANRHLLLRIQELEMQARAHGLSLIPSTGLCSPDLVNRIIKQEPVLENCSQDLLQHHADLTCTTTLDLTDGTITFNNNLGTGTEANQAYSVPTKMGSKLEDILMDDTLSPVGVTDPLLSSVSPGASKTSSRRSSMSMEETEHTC
# HT-1080 = experiment: HT1080 cell viability loss – fluorescence readout (AID 620); type: functional, cell-based; conditions: Homo sapiens
# [16] = target: Luciferin 4-monooxygenase (Photinus pyralis, UniProt P08659); experiment: Counter Screen for Luciferase-based Assay Positives. [Related pubchem assays: 620, 618, 411 ]
# Nonstructural protein 1 = Nonstructural protein 1 (Influenza A virus, UniProt Q194T2); type: functional, Influenza A virus (A/California/07/2009(H1N1))
# cells [17] = type: functional, cell-based
# cells [18] = type: functional, cell-based; remark: listed apart in the source
# [19] = Luminescence-based dose response cell-based high throughput screening assay for cytotoxic compounds using the IEC-6 intestinal epithelial cell line. [Related pubchem assays: 1858 (Summary AID.), 1825 (Counterscreen.), 1907 (Confirmation screen.)]; type: functional
# Vero = experiment: cells; type: functional; conditions: Chlorocebus sabaeus
# [20] = microbe, parasite or virus in culture; type: functional; conditions: Mycobacterium tuberculosis
# Sequence of Glyceraldehyde-3-phosphate dehydrogenase (P04406 whole entry): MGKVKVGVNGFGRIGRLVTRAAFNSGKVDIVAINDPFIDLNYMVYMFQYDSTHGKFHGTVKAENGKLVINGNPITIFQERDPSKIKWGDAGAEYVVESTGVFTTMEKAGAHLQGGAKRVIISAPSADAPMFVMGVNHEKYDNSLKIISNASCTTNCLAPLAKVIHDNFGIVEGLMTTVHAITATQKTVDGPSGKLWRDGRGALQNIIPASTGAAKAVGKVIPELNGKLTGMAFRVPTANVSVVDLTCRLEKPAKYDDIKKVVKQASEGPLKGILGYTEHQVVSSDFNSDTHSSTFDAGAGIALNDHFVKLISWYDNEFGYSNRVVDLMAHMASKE
# Sequence of Melanin-concentrating hormone receptor 1 (Q99705 whole entry): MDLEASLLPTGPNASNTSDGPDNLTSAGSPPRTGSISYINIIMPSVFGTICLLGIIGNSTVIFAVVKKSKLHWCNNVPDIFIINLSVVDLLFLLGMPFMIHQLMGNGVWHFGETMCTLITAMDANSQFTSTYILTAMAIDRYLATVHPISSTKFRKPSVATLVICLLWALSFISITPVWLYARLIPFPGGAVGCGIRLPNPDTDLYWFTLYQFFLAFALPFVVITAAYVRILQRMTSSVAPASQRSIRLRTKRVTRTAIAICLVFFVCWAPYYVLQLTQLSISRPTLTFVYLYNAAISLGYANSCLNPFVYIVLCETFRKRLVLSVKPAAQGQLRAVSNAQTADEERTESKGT
# Sequence of DNA dC->dU-editing enzyme APOBEC-3G (Q9HC16 whole entry): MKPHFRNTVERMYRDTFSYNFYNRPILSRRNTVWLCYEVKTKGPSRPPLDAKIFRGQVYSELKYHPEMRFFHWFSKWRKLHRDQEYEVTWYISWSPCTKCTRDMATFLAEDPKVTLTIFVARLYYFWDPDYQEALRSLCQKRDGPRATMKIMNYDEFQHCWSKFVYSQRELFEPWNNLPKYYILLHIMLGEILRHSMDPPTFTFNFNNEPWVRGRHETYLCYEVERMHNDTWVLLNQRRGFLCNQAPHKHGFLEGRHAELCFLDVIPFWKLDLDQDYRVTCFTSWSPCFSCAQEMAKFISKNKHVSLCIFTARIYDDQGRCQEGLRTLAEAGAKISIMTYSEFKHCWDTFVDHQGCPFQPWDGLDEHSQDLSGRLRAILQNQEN
# Sequence of DNA dC->dU-editing enzyme APOBEC-3A (P31941 whole entry): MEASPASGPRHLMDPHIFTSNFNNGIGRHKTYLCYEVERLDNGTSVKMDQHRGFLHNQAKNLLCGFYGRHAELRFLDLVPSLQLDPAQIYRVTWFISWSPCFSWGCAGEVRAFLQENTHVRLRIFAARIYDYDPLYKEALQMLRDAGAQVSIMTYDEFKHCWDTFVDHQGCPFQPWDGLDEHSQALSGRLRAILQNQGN
# Sequence of Peroxisome proliferator-activated receptor gamma/Nuclear receptor coactivator 1 (P37231 whole entry): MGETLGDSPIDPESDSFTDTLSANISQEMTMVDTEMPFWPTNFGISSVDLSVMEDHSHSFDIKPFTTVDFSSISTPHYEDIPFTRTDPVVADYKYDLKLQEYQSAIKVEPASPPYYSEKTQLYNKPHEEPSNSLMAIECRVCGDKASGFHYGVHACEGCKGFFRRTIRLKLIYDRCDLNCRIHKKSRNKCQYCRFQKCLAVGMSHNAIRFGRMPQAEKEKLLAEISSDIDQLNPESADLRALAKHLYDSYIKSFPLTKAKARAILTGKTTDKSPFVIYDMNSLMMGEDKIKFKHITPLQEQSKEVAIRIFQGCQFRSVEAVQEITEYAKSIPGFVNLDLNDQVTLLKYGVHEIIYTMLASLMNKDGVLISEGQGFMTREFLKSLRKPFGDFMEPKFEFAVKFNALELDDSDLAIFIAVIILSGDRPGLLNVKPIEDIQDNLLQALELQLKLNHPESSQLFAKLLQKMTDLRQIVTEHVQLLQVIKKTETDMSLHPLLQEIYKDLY
# Sequence of Peroxisome proliferator-activated receptor gamma/Nuclear receptor coactivator 1 (Q15788 whole entry, further chain): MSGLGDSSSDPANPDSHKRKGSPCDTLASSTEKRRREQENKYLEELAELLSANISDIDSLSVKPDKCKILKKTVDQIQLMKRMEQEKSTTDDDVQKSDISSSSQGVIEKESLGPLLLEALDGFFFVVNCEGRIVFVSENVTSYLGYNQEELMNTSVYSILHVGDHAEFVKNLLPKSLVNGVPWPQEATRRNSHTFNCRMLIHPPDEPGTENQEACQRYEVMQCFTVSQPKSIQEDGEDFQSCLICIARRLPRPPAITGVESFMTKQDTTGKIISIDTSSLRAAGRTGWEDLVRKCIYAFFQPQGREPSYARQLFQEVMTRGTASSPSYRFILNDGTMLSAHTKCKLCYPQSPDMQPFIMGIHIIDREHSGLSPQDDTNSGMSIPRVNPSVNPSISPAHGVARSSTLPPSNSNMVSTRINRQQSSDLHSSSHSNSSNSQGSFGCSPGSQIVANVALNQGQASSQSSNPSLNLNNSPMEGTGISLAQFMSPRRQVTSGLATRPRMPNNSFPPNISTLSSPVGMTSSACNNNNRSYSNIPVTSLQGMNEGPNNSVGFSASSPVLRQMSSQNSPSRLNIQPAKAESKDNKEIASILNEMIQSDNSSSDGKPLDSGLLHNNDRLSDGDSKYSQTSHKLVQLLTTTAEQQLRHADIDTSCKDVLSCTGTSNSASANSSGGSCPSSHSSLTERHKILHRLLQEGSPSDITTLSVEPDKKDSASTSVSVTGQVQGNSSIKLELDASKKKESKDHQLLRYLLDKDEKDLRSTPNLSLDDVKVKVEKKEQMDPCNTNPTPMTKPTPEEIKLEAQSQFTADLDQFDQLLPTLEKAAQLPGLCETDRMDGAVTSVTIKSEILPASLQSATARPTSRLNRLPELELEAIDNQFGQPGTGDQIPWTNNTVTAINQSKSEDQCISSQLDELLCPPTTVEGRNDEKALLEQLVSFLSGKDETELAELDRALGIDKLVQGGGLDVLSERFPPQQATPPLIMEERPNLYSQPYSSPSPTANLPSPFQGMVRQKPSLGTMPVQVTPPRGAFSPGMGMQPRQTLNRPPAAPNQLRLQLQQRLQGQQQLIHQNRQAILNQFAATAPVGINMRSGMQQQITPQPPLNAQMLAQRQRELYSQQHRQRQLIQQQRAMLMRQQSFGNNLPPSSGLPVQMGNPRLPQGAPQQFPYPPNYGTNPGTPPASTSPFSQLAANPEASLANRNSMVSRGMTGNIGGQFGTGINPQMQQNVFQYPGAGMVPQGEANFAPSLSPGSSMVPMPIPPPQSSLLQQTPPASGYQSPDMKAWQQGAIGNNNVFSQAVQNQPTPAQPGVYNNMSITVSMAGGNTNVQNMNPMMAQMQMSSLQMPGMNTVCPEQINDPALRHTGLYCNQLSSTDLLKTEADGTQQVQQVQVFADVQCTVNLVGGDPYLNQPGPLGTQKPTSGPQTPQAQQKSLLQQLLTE
# Sequence of Luciferin 4-monooxygenase (P08659 whole entry): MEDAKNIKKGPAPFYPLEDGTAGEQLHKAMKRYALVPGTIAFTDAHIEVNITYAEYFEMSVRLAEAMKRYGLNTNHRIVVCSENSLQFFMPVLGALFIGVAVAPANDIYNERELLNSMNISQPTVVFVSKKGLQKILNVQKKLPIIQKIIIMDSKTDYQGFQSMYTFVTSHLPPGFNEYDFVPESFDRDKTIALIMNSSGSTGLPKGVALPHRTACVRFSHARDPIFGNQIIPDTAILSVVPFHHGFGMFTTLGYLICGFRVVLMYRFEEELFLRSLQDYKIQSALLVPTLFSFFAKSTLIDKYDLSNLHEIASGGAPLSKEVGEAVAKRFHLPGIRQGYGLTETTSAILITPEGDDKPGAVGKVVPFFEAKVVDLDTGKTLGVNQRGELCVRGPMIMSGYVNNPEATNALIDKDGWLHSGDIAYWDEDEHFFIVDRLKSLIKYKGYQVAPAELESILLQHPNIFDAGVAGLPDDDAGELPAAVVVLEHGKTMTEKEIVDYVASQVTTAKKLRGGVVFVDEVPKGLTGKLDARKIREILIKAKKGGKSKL
# Sequence of Nonstructural protein 1 (Q194T2 whole entry): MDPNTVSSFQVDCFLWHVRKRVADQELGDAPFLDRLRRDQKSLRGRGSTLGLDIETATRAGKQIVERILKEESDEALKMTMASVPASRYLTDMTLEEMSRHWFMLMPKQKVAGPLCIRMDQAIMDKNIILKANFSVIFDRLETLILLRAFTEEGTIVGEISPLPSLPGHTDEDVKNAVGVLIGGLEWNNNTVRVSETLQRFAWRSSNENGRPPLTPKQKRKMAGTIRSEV
compound,measurement,setting,value
O=[N+]([O-])c1nn(-c2ccc3c(c2)OCCO3)[n+]([O-])c1Nc1ccc(Cl)cc1,EC50,[1],131 nM (active)
same,IC50,[2],> 43.8 µM (not active)
same,EC50,[3],> 60 µM (not active)
same,IC50,[4],> 43.8 µM (not active)
CCn1c(=O)cc(SCC(=O)N2CCCCC2)c2ccccc21,EC50,[5],> 79.4 µM (not active)
same,EC50,[6],> 79.4 µM (inactive)
same,EC50,[7],> 79.4 µM (not active)
same,IC50,[8],> 80 µM (inactive)
COc1ccc(OC)c(S(=O)(=O)Nc2cccc3ccccc23)c1,IC50,[9],> 100 µM (not active)
same,IC50,[10],> 100 µM (inactive)
Cc1ccccc1CSc1nc(O)c2c[nH]nc2n1,IC50,Aminopeptidase N,65.2 µM (active)
O=C(O)COc1ccc(Br)cc1CP(=O)(c1ccccc1)c1ccccc1,IC50,Aminopeptidase N,49.3 µM (active)
Cc1ccc(N=C(S)NCc2ccc(Cl)cc2)c(C)c1,IC50,[2],> 43.8 µM (not active)
same,IC50,[4],17.1 µM (not active)
O=C(CSc1nnc(NC(=O)c2ccccc2C(=O)O)s1)Nc1ccccc1Cl,IC50,[11],14 µM (active)
same,IC50,[12],9.42 µM (active)
c1cc(Cn2ccnc2)ccn1,IC50,[9],> 100 µM (not active)
same,IC50,[10],> 100 µM (inactive)
CC1=CC(C)(C)Nc2ccc(OC(=O)C(Cc3ccccc3)N3C(=O)c4ccccc4C3=O)cc21 (stereo not drawn),EC50,[13],> 260 µM (inactive)
same,IC50,[8],> 80 µM (inactive)
same,CC50,[14],> 50 µM (active)
CC1=NC(=O)C(N=Nc2cccc(C(=O)O)c2)N1c1ccccc1 (stereo not drawn),AC50,[15],8.62 µM (active)
same,EC50,HT-1080,> 50 µM (not active)
same,EC50,[16],670 nM (active)
same,IC50,[11],4.74 µM (active)
same,IC50,[12],6.48 µM (active)
O=C(N/N=C/c1cc(Cl)ccc1O)c1ccncc1,IC50,Nonstructural protein 1,5.05 µM (active)
same,IC50,Aminopeptidase N,22.3 µM (active)
same,AC50,[15],8.98 µM (active)
same,EC50,cells [17],> 350 µM (not active)
same,EC50,cells [18],18.1 µM (active)
Cc1[nH]c2ccccc2c1/C=N/Nc1nc(Nc2ccccc2)nc(N2CCOCC2)n1,IC50,[19],482 nM (active)
same,CC50,Vero,3.33 µM (active)
same,CC50,[20],24.1 µM (active)
same,IC50,[8],66.7 µM (inactive)
same,CC50,[14],22.6 µM (active)
COc1ccc(OC)c(S(=O)(=O)Nc2ccc3ncccc3c2)c1,IC50,[9],> 100 µM (not active)
same,IC50,[10],> 100 µM (inactive)
